# Data taken from patent US20050261292A1, “Pharmaceutical composition containing N-sulfamoyl-N'-arylpiperazines for the treatment or inhibition of obesity and related conditions” (Solvay Pharmaceuticals GmbH, priority 2004, published 2005).
# Counter-ions that a name gives are not always drawn.
# Key:
# [1] = system: dietary obese female Wistar rats; experiment: Chronic influence on food and water intake and body weight gain in vivo (carcass composition, plasma parameters); parameters: species or system rat; conditions: 28 days, mean ± SEM; for Plasma glucose / Plasma insulin / Plasma leptin: plasma day 29
# Protocol: 4. Chronic Influence on Food and Water Intake and Body Weight Gain in vivo
# Female Wistar rats (weight range 250-300 g; Charles River, Margate, Kent) were housed in pairs in polypropylene cages with solid floors and sawdust bedding at a temperature of 21±4° C. and 55±20% humidity. Animals were maintained on a reverse phase light-dark cycle (lights off for 8 hours from 10.00-18.00 h) during which time the room was illuminated by red light. Animals had free access to powdered high fat diet (VRF1 plus 20% lard), ground chocolate, ground peanuts and tap water at all times. The three different diets were contained in separate glass feeding jars with aluminium lids (Solmedia Laboratory Suppliers, Romford, Essex). […] Animals were housed in pairs for twelve weeks. At least two weeks before the start of the baseline readings, animals were housed individually in polypropylene cages with wire grid floors to enable the food intake of each rat to be recorded. Polypropylene trays with cage pads were placed beneath each cage to detect any food spillage.
# At the start of the study, animals were weighed (to the nearest 0.1 g using an electronic top-pan balance) and allocated into 6 weight-matched treatment groups, each containing 10 animals. Following a 7 day baseline run-in period, during which time all animals were dosed orally once a day with vehicle (1% Tylose MH50, 0.1% poloxamer 188), rats were given vehicle or test compound of Formula I for 28 days as described in Table 4 below: […]
# The test substance of example 2 was suspended in 1% Tylose MH50, 0.1% poloxamer 188 and administered by oral gavage (2 ml/kg). All dosing occurred at the onset of the 8 hours dark period (spanning the period immediately before and after lights out). The second treatments were given 4 hours after the first. Rats, feeding jars and water bottles were weighed (to the nearest 0.1 g) every day at the time of administration of vehicle or test substance. At each reading, the tray below each cage was examined for spilt food, which was returned to the appropriate jar before weighing. However, spillage of food from the feeding jars was negligible. Variations in body weight and energy levels of the different types of food were accounted for by expressing the food intake results in terms of kJ/kg rat weight. Water intake results were expressed in g/kg.
# Animals were killed at the end of the study (by CO2 to minimize any fluid loss) on day 29 and blood samples (5 ml whole blood/animal) were collected by cardiac puncture. Plasma was separated by centrifugation and stored at −75° C. until analysis. Following blood collection carcasses were weighed, frozen and stored at −75° C. for body composition analysis. Body fat, protein, water and ash levels of the carcasses were determined using standard chemical analysis techniques. Only fat, protein, water and ash content were measured as other components (mainly carbohydrate) form less than 2% of total body composition.
# Carcasses were individually milled at the temperature of liquid nitrogen, mixed and two representative samples taken. Carcass water was determined by freeze-drying the samples to constant weight. Carcass fat was determined on the freeze-dried samples using a modified Soxhlet extraction protocol (petroleum ether at 40-60° C.) with a Foss Soxtec® HT2 system (Foss UK Ltd, Wheldrake, UK) according to the manufacturers recommended protocol. Carcass protein was determined using a micro-Kjeldahl procedure on the freeze-dried samples using a Foss 2012® digestion block and Foss 2200® distilling unit (Foss UK Ltd). Residual carcass ash was determined by firing the freeze-dried samples at high temperatures using a muffle ashing furnace. Repeat determinations of the chemical analysis parameters were performed as necessary (e.g. if the duplicate samples differed by more than 1%).
# male fatty Zucker rats = experiment: In vivo oral glucose tolerance test in the rat; conditions: 100 mg/kg/day oral gavage
# Protocol: 2. In vivo Oral Glucose Tolerance Test in the Rat
# The studies were carried out in individually housed male fatty Zucker rats (n=10 per group) weighing ca. 250-500 g. The rats were kept on a normal 12/12 h light/dark cycle (lights on 07.00) and they were allowed food (lab chow) and water ad libitum except for during experiments, when they were fasted overnight before the glucose challenge.
# The test substances of Formula I were suspended in 2% polyethylenglycol (=PEG) 1% carboxymethylcellulose and administered by oral gavage at a dose of 100 mg/kg/day; ⅓ of the dose (1 ml/kg, 33 mg/ml) was administered at 08.30-09.30 h; the remaining […] (2 ml/kg; 33 mg/ml) was administered between 16.00-17.00 h and the last ⅓ dose was given the following morning. Control animals received only the vehicle. On the day of the test, 45 min after the final dose of test substance/vehicle a blood sample (0 min) was taken (tail vein) immediately after which the rats received an oral glucose challenge (1.25 g/kg; 118 mg/ml). Further blood samples were taken at 30, 60, 90, 120 min after the glucose challenge. The second drop of blood of each sample was placed on a glucose test strip before this was placed in the glucose meter for determination of blood glucose level (Life Scan One Touch Ultra Blood® Glucose Meter and Life Scan One Touch Ultra® Test Strips; Life Scan Inc.; Milpitas, Calif. 95035). The remaining blood of each sample was spun and the plasma was frozen at −80° C. before analysis for insulin (1-2-3 Rat Insulin ELISA kit, Alpco Diagnostics).
# The values obtained were plotted and the AUC for test compounds and vehicle (for glucose and insulin) were determined after which the percent control AUC, percent control maximum value and % control baseline were estimated, to determine the influence of the test compound on the glucose tolerance.
# [2] = 30 mg/kg po twice daily (0 h, 4 h)
# [3] = 50 mg/kg po twice daily (0 h, 4 h)
smiles,measurement,setting,value
"NS(=O)(=O)N1CCN(c2ccccc2)CC1 [Example 2, N-Sulfamoyl-N′-phenylpiperazine hydrochloride]","Carcass ash, mean percent final body weight",[1]; [2],3.24 ± 0.12%
same,"Carcass ash, mean weight per rat",[1]; [2],12.13 ± 0.48 g
same,"Carcass fat, mean percent final body weight",[1]; [2],22.8 ± 1.0 %
same,"Carcass fat, mean weight per rat",[1]; [2],87.9 ± 3.8 g
same,"Carcass protein, mean percent final body weight",[1]; [2],17.4 ± 0.3*° %
same,"Carcass protein, mean weight per rat",[1]; [2],64.8 ± 1.2 g
same,"Carcass water, mean percent final body weight",[1]; [2],55.2 ± 0.8 %
same,"Carcass water, mean weight per rat",[1]; [2],205.8 ± 3.1 g
same,"Carcass weight, mean per rat",[1]; [2],375.4 ± 4.8 g
same,Plasma glucose,[1]; 30 mg/kg po twice daily,8.6 ± 0.5 mM
same,Plasma insulin,[1]; 30 mg/kg po twice daily,1.53 ± 0.33 ng/mL
same,Plasma leptin,[1]; 30 mg/kg po twice daily,68.8 ± 9.4 ng/mL
same,"Carcass ash, mean percent final body weight",[1]; [3],3.14 ± 0.1%
same,"Carcass ash, mean weight per rat",[1]; [3],11.38 ± 0.29 g
same,"Carcass fat, mean percent final body weight",[1]; [3],22.3 ± 1.8 %
same,"Carcass fat, mean weight per rat",[1]; [3],83.6 ± 6.9 g
same,"Carcass protein, mean percent final body weight",[1]; [3],17.3 ± 0.4*° %
same,"Carcass protein, mean weight per rat",[1]; [3],62.8 ± 1.3 g
same,"Carcass water, mean percent final body weight",[1]; [3],55.7 ± 1.2 %
same,"Carcass water, mean weight per rat",[1]; [3],202.2 ± 3.6 g
same,"Carcass weight, mean per rat",[1]; [3],365.6 ± 3.8 g
same,Plasma glucose,[1]; 50 mg/kg po twice daily,7.9 ± 0.5 mM
same,Plasma insulin,[1]; 50 mg/kg po twice daily,1.40 ± 0.41 ng/mL
same,Plasma leptin,[1]; 50 mg/kg po twice daily,58.8 ± 11.6 ng/mL
same,Glucose Baseline,male fatty Zucker rats; 0 min sample before glucose challenge,82 % of control
same,Insulin Baseline,"male fatty Zucker rats; 0 min sample before glucose challenge, plasma",85 % of control
same,Glucose Maximal effect,male fatty Zucker rats; oral glucose challenge 1.25 g/kg,78 % of control
same,Glucose AUC,"male fatty Zucker rats; oral glucose challenge 1.25 g/kg, 0-120 min",84 % of control
same,Insulin AUC,"male fatty Zucker rats; oral glucose challenge 1.25 g/kg, 0-120 min, plasma",95 % of control
same,Insulin Maximal effect,"male fatty Zucker rats; oral glucose challenge 1.25 g/kg, plasma",95 % of control
